From the NIST ThermoML archive (doi:10.1021/acs.jced.7b00520)

Key:
[1] = 101.3 kPa, Liquid, Capillary tube (Ostwald / Ubbelohde) method
[2] = mn = molality of the nth substance listed, in mol/kg; details: 101.3 kPa, Liquid; for viscosity: Capillary tube (Ostwald / Ubbelohde) method; for mass density: Vibrating tube method

O [water]
[1]
Details | viscosity [mPa·s]
288.15 K | 1.138
298.15 K | 0.89
308.15 K | 0.719
318.15 K | 0.596

[Cl-].[Cl-].[Mg+2] [magnesium chloride] + O
[2]
Details | mass density, m1 = 0.09999 [kg/m3] | mass density, m1 = 0.25 [kg/m3] | mass density, m1 = 0.5 [kg/m3] | mass density, m1 = 0.7499 [kg/m3] | mass density, m1 = 0.9999 [kg/m3] | viscosity, m1 = 0.0999 [mPa·s] | viscosity, m1 = 0.25 [mPa·s] | viscosity, m1 = 0.5 [mPa·s] | viscosity, m1 = 0.7499 [mPa·s] | viscosity, m1 = 0.9999 [mPa·s]
288.15 K | 1006.87 | 1017.79 | 1034.95 | 1050.84 | 1065.46 | 1.21 | 1.25 | 1.355 | 1.445 | 1.534
298.15 K | 1004.61 | 1015.32 | 1032.22 | 1048.21 | 1062.64 | 0.934 | 0.981 | 1.072 | 1.147 | 1.214
308.15 K | 1001.62 | 1012.53 | 1029.55 | 1045.26 | 1059.4 | 0.751 | 0.794 | 0.862 | 0.934 | 1.01
318.15 K | 997.848 | 1008.92 | 1026.01 | 1041.4 | 1055.25 | 0.624 | 0.659 | 0.715 | 0.762 | 0.814
